What was measured:
[1] = target: T1, Type-1 angiotensin II receptor (Homo sapiens, UniProt P30556)
T1 sequence (P30556 whole entry): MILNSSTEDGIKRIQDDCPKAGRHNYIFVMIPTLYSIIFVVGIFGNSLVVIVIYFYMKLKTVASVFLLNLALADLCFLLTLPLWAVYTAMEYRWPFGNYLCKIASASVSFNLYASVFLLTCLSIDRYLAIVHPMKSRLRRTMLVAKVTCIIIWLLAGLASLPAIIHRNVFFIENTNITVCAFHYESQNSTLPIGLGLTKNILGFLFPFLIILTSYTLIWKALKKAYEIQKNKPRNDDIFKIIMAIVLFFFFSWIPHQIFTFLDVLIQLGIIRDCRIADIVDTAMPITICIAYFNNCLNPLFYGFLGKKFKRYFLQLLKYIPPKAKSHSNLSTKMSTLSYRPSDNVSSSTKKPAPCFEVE

[2] = target: Sodium-dependent dopamine transporter (Homo sapiens, UniProt Q01959)
Sequence of Sodium-dependent dopamine transporter (Q01959 whole entry): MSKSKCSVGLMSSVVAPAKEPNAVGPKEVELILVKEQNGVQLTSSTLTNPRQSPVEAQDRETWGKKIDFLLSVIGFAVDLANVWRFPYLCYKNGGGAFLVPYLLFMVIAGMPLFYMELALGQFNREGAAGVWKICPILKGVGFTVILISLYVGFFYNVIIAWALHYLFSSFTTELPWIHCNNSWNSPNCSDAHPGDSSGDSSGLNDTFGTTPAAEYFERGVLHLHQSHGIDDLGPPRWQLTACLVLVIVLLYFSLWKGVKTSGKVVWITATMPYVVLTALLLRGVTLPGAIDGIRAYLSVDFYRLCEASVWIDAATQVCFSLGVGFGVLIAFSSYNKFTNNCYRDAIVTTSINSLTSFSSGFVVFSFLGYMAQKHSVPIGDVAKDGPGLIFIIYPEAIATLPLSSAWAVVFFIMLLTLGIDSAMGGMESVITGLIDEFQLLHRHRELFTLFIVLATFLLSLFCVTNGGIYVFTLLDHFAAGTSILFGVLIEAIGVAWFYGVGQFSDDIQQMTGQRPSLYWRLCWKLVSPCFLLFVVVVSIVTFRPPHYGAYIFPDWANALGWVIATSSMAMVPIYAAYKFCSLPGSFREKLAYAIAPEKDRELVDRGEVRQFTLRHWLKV

Progesterone receptor = target: T2, Progesterone receptor (Homo sapiens, UniProt P06401); assay type: functional
T2 sequence (P06401 whole entry): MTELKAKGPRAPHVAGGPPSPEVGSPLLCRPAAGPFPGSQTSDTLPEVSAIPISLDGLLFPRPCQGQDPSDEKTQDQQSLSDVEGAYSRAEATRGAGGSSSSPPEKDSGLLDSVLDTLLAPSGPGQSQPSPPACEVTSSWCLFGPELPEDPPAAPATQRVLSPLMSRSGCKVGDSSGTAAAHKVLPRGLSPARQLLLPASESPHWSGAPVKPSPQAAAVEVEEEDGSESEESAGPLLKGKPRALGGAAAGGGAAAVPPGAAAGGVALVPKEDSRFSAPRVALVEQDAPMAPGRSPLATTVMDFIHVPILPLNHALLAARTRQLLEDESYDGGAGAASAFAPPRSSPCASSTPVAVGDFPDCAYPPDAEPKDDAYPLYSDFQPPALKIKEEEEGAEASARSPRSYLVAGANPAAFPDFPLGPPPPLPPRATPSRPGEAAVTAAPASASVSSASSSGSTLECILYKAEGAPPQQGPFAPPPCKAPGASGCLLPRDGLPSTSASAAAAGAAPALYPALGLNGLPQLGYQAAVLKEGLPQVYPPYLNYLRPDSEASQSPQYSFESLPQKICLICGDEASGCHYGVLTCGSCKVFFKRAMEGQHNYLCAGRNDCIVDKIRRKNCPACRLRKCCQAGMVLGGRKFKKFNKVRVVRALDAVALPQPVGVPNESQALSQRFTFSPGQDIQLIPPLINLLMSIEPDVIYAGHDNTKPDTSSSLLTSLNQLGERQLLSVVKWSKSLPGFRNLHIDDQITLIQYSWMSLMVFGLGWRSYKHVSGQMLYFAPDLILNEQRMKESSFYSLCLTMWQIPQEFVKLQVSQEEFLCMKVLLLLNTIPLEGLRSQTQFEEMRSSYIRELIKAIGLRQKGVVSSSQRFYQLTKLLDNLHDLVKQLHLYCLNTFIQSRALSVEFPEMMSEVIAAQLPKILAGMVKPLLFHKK

Motilin receptor = Motilin receptor (Homo sapiens, UniProt O43193)
Sequence of Motilin receptor (O43193 whole entry): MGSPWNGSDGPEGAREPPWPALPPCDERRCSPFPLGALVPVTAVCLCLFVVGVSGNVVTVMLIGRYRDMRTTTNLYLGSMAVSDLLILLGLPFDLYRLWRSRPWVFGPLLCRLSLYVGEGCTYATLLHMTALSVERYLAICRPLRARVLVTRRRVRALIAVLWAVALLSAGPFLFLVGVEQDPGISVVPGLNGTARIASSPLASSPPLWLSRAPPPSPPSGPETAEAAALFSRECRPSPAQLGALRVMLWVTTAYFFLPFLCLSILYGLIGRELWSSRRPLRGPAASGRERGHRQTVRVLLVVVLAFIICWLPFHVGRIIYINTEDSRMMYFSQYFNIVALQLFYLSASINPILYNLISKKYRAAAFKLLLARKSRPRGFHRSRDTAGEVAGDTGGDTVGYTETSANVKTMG

[3] = target: cGMP-inhibited 3',5'-cyclic phosphodiesterase 3A (Homo sapiens, UniProt Q14432); assay type: functional
Sequence of cGMP-inhibited 3',5'-cyclic phosphodiesterase 3A (Q14432 whole entry): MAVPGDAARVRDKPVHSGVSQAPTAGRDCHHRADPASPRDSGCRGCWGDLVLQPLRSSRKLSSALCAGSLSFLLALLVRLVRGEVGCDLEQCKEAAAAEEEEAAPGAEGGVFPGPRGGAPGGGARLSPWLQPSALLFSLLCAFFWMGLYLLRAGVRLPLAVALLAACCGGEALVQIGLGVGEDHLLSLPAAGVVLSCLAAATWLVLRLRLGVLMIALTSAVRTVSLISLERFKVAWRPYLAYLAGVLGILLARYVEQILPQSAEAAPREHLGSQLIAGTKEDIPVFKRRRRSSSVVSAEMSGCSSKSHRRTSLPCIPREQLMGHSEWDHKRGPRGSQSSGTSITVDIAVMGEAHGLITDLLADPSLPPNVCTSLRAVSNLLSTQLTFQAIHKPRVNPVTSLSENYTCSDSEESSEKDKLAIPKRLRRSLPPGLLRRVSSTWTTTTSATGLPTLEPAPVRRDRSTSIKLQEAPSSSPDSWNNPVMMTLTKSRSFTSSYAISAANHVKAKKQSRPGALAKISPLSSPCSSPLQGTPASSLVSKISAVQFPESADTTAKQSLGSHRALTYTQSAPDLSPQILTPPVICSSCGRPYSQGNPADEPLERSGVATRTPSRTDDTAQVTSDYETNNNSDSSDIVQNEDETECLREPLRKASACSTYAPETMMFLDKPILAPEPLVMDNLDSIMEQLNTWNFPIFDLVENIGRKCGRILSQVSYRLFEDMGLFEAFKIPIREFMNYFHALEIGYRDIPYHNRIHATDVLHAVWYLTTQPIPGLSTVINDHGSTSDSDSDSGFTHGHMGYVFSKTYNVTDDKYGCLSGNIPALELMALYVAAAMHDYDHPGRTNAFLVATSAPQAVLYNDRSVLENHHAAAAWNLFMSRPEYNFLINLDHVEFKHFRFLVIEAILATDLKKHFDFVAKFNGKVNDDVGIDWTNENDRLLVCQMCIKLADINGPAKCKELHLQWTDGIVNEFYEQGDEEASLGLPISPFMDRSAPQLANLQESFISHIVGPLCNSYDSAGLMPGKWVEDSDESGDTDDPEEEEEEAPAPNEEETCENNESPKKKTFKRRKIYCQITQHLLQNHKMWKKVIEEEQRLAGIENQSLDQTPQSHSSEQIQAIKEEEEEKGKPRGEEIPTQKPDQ

[4] = target: Voltage-dependent L-type calcium channel subunit alpha-1C (Rattus norvegicus, UniProt P22002); assay type: functional
[5] = target: T3, Alpha-2A adrenergic receptor (Homo sapiens, UniProt P08913); assay type: functional, cell-based
T3 sequence (P08913 whole entry): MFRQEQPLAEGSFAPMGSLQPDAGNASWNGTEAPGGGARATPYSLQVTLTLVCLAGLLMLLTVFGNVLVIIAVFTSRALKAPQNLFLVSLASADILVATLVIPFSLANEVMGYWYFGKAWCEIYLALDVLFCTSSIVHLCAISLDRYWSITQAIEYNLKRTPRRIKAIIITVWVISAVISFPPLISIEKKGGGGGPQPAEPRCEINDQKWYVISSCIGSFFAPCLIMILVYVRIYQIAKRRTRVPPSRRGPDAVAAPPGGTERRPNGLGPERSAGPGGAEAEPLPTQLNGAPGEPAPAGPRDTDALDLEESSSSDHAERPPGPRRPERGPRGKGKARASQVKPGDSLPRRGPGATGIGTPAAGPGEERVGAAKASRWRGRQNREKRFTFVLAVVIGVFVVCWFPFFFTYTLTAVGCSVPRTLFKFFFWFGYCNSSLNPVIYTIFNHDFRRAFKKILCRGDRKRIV

[6] = target: Kappa-type opioid receptor (Homo sapiens, UniProt P41145)
Sequence of Kappa-type opioid receptor (P41145 whole entry): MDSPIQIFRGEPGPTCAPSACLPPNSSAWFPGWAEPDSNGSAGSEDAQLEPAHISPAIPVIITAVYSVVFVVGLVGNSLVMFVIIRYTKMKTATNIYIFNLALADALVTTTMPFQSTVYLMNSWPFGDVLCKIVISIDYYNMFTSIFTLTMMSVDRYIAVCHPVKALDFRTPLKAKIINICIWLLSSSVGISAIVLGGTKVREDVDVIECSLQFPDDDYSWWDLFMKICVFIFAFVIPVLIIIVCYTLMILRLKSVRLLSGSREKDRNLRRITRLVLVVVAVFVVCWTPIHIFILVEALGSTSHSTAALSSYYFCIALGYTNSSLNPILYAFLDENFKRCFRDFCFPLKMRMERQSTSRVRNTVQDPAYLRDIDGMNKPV

[7] = target: Voltage-gated inwardly rectifying potassium channel KCNH2 (Homo sapiens, UniProt Q12809); assay type: functional
[8] = target: Growth hormone secretagogue receptor type 1 (Homo sapiens, UniProt Q92847)
Sequence of Growth hormone secretagogue receptor type 1 (Q92847 whole entry): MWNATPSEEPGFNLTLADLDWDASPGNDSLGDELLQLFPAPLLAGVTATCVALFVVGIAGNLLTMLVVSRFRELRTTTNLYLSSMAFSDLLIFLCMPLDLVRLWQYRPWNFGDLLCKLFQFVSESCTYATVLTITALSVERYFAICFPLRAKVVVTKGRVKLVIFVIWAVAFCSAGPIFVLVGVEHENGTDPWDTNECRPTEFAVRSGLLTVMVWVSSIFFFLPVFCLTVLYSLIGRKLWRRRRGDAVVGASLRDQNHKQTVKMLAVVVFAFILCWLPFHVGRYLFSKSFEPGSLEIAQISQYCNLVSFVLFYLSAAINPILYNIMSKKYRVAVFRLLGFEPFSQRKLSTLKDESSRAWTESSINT

Mu-type opioid receptor = Mu-type opioid receptor (Homo sapiens, UniProt P35372)
Sequence of Mu-type opioid receptor (P35372 whole entry): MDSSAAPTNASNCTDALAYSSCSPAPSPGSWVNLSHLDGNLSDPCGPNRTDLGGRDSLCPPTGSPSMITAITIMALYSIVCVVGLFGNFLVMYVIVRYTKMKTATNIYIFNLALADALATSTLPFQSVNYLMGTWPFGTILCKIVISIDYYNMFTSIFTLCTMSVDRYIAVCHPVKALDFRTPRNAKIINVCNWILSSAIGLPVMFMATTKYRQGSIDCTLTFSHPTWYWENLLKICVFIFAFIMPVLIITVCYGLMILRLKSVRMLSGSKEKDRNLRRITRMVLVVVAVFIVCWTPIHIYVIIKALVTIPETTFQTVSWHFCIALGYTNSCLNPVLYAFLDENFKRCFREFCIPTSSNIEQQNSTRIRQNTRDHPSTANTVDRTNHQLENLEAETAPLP

Adenosine receptor A3 = target: T4, Adenosine receptor A3 (Homo sapiens, UniProt P0DMS8)
T4 sequence (P0DMS8 whole entry): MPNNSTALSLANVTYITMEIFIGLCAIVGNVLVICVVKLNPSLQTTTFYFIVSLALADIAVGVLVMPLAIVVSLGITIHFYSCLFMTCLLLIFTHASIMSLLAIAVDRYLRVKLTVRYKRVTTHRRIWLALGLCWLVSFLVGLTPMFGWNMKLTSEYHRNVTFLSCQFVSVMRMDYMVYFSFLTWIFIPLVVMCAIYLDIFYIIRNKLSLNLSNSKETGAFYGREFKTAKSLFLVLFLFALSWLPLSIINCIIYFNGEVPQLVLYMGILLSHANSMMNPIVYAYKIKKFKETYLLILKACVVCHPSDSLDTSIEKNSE

Histamine H2 receptor = Histamine H2 receptor (Homo sapiens, UniProt P25021); assay type: functional, cell-based
Sequence of Histamine H2 receptor (P25021 whole entry): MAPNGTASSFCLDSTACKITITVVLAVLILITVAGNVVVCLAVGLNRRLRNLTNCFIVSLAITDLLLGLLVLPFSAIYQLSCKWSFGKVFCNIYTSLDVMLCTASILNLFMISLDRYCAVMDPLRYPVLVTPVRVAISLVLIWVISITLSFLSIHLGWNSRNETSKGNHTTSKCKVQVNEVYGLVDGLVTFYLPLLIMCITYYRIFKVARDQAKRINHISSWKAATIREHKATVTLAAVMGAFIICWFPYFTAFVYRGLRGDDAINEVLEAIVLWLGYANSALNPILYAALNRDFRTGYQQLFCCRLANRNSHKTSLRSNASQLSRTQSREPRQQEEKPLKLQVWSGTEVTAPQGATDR

Vasopressin V2 receptor = Vasopressin V2 receptor (Homo sapiens, UniProt P30518)
Sequence of Vasopressin V2 receptor (P30518 whole entry): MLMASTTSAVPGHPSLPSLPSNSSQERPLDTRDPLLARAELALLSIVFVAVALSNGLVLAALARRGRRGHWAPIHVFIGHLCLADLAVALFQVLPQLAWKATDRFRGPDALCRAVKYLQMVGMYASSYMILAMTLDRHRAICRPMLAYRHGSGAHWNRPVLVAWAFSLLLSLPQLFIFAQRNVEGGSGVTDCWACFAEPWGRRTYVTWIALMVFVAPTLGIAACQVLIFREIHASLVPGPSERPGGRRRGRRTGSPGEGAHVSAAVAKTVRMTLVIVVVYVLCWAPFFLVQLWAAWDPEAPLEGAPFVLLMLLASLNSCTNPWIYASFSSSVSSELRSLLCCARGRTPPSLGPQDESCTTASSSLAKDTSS

Histamine H3 receptor = Histamine H3 receptor (Homo sapiens, UniProt Q9Y5N1)
Sequence of Histamine H3 receptor (Q9Y5N1 whole entry): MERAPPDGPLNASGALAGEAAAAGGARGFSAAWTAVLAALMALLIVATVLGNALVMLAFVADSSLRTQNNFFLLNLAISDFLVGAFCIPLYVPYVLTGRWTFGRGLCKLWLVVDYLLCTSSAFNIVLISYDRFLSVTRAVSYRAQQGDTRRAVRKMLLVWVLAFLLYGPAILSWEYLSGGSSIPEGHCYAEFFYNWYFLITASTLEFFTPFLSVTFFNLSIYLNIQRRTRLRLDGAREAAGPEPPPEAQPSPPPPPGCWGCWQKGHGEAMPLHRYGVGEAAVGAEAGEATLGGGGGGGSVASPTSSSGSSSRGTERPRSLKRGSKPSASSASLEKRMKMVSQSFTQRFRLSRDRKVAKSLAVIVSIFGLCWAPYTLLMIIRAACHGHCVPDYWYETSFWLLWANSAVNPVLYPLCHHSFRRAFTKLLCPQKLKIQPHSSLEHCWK

Cannabinoid receptor 1 = Cannabinoid receptor 1 (Homo sapiens, UniProt P21554); assay type: functional, cell-based
Sequence of Cannabinoid receptor 1 (P21554 whole entry): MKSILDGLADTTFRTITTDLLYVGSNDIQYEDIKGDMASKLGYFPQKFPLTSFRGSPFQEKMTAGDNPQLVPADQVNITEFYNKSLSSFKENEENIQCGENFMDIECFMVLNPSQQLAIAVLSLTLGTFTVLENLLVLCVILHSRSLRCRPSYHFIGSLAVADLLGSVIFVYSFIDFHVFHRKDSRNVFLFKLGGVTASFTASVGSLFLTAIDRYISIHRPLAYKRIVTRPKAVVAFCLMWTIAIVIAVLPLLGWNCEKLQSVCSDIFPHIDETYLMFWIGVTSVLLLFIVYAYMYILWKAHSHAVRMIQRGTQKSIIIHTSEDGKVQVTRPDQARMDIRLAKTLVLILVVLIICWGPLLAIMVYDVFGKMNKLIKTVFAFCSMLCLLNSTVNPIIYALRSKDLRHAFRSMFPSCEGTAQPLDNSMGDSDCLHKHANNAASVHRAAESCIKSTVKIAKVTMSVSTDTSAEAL
Also: assay procedure not described here.

Compound	AC50 [1] [µM]	AC50 [2] [µM]	AC50 (Progesterone receptor) [µM]	AC50 (Motilin receptor) [µM]	AC50 [3] [µM]	AC50 [4] [µM]	AC50 [5] [µM]	AC50 [6] [µM]	AC50 ([7]; read-out: AC50) [µM]	AC50 [8] [µM]	AC50 (Mu-type opioid receptor) [µM]	AC50 (Adenosine receptor A3) [µM]	AC50 (Histamine H2 receptor) [µM]	AC50 (Vasopressin V2 receptor) [µM]	AC50 (Histamine H3 receptor) [µM]	AC50 (Cannabinoid receptor 1) [µM]	AC50 ([7]; human, cellular components) [µM]
COc1ccc(CCNCC(O)COc2cccc(C)c2)cc1OC (stereo not drawn) [BEVANTOLOL]	> 10	16.2	> 10	> 10	> 30	> 10	> 10	> 10	3.41	> 10	> 10	> 10	> 30	> 10	–	–	–
CC1(C)CCC(CN2CCN(c3ccc(C(=O)NS(=O)(=O)c4ccc(NCC5CCOCC5)c([N+](=O)[O-])c4)c(Oc4cnc5[nH]ccc5c4)c3)CC2)=C(c2ccc(Cl)cc2)C1 [VENETOCLAX]	–	22	> 30	–	> 30	–	–	–	> 30	–	–	2.3	–	–	–	–	–
O=C1C(O)=C([C@H]2CC[C@H](c3ccc(Cl)cc3)CC2)C(=O)c2ccccc21 [ATOVAQUONE]	> 30	> 30	> 30	> 30	> 30	> 30	> 30	> 30	> 30	> 30	–	> 30	> 30	> 30	> 30	–	–
CO[C@]12C[C@@H](COC(=O)c3cncc(Br)c3)CN(C)[C@@H]1Cc1cn(C)c3cccc2c13 [NICERGOLINE]	–	–	–	–	–	–	–	–	0.13	–	–	–	–	–	–	–	–
COc1ccc2c3c1O[C@H]1[C@@H](O)CC[C@H]4[C@@H](C2)N(C)CC[C@@]341 [DIHYDROCODEINE]	–	–	–	–	> 30	–	> 30	> 30	> 30	–	–	–	> 30	–	–	> 30	–
Fc1ccc(C(c2ccccc2)(c2ccccc2F)n2ccnc2)cc1 (stereo not drawn) [FLUTRIMAZOLE]	> 30	23	> 30	27	> 30	> 30	> 30	0.93	1.68	> 30	–	15	> 30	> 30	> 30	> 30	–
CC/C(=C(\c1ccccc1)c1ccc(OCCN(C)C)cc1)c1ccccc1 [TAMOXIFEN]	–	12.3	–	–	–	> 10	> 10	8.53	–	–	> 30	–	> 10	–	> 30	–	–
C[C@H]1COc2c(C3(N)CC3)c(F)cc3c(=O)c(C(=O)O)cn1c23 [PAZUFLOXACIN]	> 10	> 10	> 30	> 10	> 30	> 10	> 10	> 10	> 30	> 10	> 30	> 10	> 10	> 10	–	–	–
CC(CC1c2ccccc2CCc2ccccc21)CN(C)C (stereo not drawn) [BUTRIPTYLINE]	–	–	–	–	> 30	–	> 30	> 30	2.1	–	–	–	> 30	–	–	> 30	–
NC(=O)CN1CC(O)CC1=O (stereo not drawn) [OXIRACETAM]	> 30	> 30	> 30	> 30	> 30	–	> 30	> 30	> 30	> 30	–	> 30	> 30	> 30	> 30	> 30	–
THIMEROSAL	–	–	–	–	–	–	–	–	–	–	–	–	–	–	–	–	> 30
Brc1c(NC2=NCCN2)ccc2nccnc12 [BRIMONIDINE]	> 30	> 30	> 30	> 30	> 30	–	–	> 30	> 30	> 30	–	> 30	> 30	> 30	> 30	> 30	–
Nc1nc(Cl)nc2c1ncn2[C@H]1C[C@H](O)[C@@H](CO)O1 [CLADRIBINE]	> 30	> 30	> 30	> 30	28	–	> 30	> 30	> 30	> 30	–	> 30	> 30	> 30	> 30	> 30	–
Clc1ccccc1C(c1ccccc1)(c1ccccc1)n1ccnc1 [CLOTRIMAZOLE]	–	14.8	–	–	–	13.6	–	0.746	–	–	–	–	> 10	–	> 10	> 30	–
C[C@@H]1O[C@@H](O[C@@H]2C=C3CC[C@@H]4[C@H](CC[C@]5(C)[C@@H](c6ccc(=O)oc6)CC[C@]45O)[C@@]3(C)CC2)[C@H](O)[C@H](O)[C@H]1O [PROSCILLARIDIN]	> 30	> 30	> 30	> 30	> 30	> 30	> 30	> 30	> 30	> 30	–	> 30	> 30	> 30	> 30	> 30	–
COc1cccc(C2(O)CCCCC2CN(C)C)c1 (stereo not drawn) [TRAMADOL]	> 30	> 10	–	> 10	> 30	> 10	> 10	> 10	> 30	> 30	–	> 30	> 10	> 30	> 10	> 30	–
C#C[C@]1(O)CC[C@H]2[C@@H]3[C@H](C)CC4=C(CCC(=O)C4)[C@H]3CC[C@@]21C [TIBOLONE]	> 30	27	–	> 30	> 30	> 30	> 30	19	> 30	> 30	–	8.1	> 30	> 30	> 30	> 30	–
